Usually IC50 stands for the concentration at which inhibition is half-maximal.

In this test the target is human ACC2 (Homo sapiens (Human), UniProt O00763). The test is described as follows: ACC2 assay (spectrophotometric 384 well assay, NADH-linked kinetic method). Conditions: hACC2 construct lacking 128 N-terminal amino acids; coupled lactate dehydrogenase/pyruvate kinase reaction, 340 nm, 25° C. In kind it is biochemical. In short, it runs like this: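 Baculovirus/insect-cell human ACC2, anion-exchange purified; ADP formation coupled to pyruvate kinase/lactate dehydrogenase, NADH loss followed at 340 nm, 25° C, 15 min. Final 200 μM NADH and acetyl-CoA, 500 uM ATP; vehicle and no-acetyl-CoA wells set 100% and 0%.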
Sequence of human ACC2 (O00763 129-2458): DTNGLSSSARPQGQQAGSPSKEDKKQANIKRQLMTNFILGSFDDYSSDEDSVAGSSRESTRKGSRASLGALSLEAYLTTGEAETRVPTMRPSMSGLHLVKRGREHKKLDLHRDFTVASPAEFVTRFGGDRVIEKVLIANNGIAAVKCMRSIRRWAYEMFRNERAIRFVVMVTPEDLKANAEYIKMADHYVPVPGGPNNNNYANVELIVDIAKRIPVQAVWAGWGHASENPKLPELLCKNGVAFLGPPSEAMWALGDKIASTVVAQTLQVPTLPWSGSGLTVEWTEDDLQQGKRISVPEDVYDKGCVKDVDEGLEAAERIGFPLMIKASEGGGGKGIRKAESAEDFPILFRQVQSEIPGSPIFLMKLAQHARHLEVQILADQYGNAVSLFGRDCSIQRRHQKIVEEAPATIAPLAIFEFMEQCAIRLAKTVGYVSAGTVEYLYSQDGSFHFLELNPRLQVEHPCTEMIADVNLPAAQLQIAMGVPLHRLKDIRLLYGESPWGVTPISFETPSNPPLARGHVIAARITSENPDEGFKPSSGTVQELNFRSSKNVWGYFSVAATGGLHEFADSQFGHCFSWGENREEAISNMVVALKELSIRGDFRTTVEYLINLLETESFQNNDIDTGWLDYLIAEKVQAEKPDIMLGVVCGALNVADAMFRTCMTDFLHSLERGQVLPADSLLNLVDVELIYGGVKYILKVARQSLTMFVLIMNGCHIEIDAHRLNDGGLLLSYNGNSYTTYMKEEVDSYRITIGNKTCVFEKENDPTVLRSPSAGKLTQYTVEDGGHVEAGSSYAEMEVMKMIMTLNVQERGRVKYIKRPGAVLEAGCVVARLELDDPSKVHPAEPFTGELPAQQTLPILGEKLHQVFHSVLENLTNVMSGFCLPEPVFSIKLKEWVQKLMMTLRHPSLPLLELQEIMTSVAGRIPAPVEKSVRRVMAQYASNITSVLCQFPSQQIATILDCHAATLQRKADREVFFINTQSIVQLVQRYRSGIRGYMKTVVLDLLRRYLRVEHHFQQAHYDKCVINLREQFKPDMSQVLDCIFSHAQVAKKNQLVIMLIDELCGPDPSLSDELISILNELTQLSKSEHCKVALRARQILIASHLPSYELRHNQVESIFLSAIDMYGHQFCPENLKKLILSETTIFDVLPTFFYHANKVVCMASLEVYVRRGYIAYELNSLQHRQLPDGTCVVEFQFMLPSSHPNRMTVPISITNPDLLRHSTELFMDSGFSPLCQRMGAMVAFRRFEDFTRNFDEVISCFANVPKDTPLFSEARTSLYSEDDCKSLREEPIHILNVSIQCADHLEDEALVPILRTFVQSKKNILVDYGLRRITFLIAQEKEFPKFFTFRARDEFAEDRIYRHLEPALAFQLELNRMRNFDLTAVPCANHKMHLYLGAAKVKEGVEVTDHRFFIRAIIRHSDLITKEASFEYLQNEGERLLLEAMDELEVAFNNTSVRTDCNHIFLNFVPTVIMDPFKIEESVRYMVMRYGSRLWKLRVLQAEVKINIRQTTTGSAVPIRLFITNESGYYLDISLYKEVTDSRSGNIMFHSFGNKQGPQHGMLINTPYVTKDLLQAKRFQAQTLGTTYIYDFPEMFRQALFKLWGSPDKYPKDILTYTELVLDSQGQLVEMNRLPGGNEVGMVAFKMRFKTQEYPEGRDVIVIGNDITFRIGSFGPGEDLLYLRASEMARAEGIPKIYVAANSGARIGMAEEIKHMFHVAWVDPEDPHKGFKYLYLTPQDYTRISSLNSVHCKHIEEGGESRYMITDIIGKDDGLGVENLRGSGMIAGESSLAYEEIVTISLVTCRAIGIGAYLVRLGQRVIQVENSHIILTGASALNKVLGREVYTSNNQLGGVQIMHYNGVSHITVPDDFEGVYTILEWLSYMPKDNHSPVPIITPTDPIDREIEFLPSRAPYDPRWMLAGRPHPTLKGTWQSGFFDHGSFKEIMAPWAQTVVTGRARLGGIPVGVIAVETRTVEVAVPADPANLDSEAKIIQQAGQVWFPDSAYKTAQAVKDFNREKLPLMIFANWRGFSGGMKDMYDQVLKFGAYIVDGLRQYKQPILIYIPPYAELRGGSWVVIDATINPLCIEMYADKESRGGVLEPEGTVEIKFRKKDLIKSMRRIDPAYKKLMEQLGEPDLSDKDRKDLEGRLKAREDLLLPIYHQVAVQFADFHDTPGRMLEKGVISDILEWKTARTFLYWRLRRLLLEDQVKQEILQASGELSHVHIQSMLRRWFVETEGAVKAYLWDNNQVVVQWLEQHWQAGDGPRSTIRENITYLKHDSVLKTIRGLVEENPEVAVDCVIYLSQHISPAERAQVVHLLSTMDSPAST

As to `CCC(=O)N[C@@H](C)c1ccc(OC2CCN(c3ncnc(OCC4CC4)c3F)C2)cc1` (stereo partly shown) [Example 2.23], the IC50 came out at 144 nM.

`CC(=O)N[C@@H](C)c1ccc(O[C@@H]2CCN(c3ccnc(N(CCC#N)CC4CCCO4)n3)C2)cc1` (stereo partly shown) [Example 8.110] yielded an IC50 of 234 nM.

`CC(=O)N[C@@H](C)c1ccc(O[C@@H]2CCN(c3nc(N(C)CC4CCOC4)ncc3Br)C2)cc1` (stereo partly shown) [Example 8.61] registered a concentration for half-maximal inhibition (IC50) of 245 nM.

As to `COC[C@@H](C)N(C)c1ncc(Cl)c(N2CC[C@@H](Oc3ccc([C@H](C)NC(C)=O)cc3)C2)n1` [Example 8.225], the IC50 is 199 nM.

`CCN(CCC#N)c1ncnc(N2CC[C@@H](Oc3ccc([C@H](C)NC(C)=O)cc3)C2)c1Cl` [Example 8.116] came in with an IC50 of 470 nM.

Molecule `CC(=O)N[C@@H](C)c1ccc(O[C@@H]2CCN(c3ccnc(N(C)CC4CC4)n3)C2)cc1` [Example 8.3] registered an IC50 of 125 nM.

For the molecule `CCC(=O)N[C@@H](C)c1ccc(OC2CCN(c3ccnc(N(C)CC(F)F)n3)C2)cc1` (stereo partly shown) [Example 2.16], the IC50 was 45 nM.

`CC(=O)N[C@@H](C)c1ccc(O[C@@H]2CCN(c3nc(N4CCCCC4)ncc3Cl)C2)cc1` [Example 8.127] returned a concentration for half-maximal inhibition (IC50) of 107 nM.

For the molecule `COc1c(OCC2CC2)ncnc1N1CC[C@@H](Oc2ccc([C@H](C)NC(C)=O)cc2)C1` [Example 7.59], the half-maximal inhibitory concentration (IC50) was determined as 39 nM.

The molecule `COc1c(OCC2CC2)ncnc1N1CC[C@@H](Oc2ccc([C@H](C)NC(=O)c3coc(NC(C)=O)n3)cc2)C1` [Example 2.33] registered an IC50 of 908 nM.

`C[C@H](NC(=O)c1cn[nH]c1)c1ccc(OC2CCN(c3ncnc(OCC4CC4)c3F)C2)cc1` (stereo partly shown) [Example 2.20]: it took 53 nM to reach half-maximal inhibition (IC50).

Molecule `COc1c(OCC2CC2)ncnc1N1CC[C@@H](Oc2ccc([C@H](C)NC(=O)c3cnco3)cc2)C1` [Example 2.27] showed an IC50 of 103 nM.

`COc1c(NCC2(O)CCC2)ncnc1N1CC[C@@H](Oc2ccc([C@H](C)NC(C)=O)cc2)C1` [Example 8.300]: the IC50 is 537 nM.

With `CCN(C)C(=O)N[C@@H](C)c1ccc(OC2CCN(c3ccnc(N4CCOCC4)n3)C2)cc1` (stereo partly shown) [Example 3.7], the concentration for half-maximal inhibition (IC50) came out at 374 nM.

`CC(=O)N[C@@H](C)c1ccc(O[C@@H]2CCN(c3nc(N4CC(F)(F)C(F)(F)C4)ncc3F)C2)cc1` [Example 8.217] registered an IC50 of 145 nM.

In turn, `CC(=O)N[C@@H](C)c1ccc(O[C@@H]2CCN(c3nc(N(C)CC(C)(C)O)ncc3F)C2)cc1` [Example 8.28] returned an IC50 of 809 nM.

Regarding `CC(=O)N[C@@H](C)c1ccc(O[C@@H]2CCN(c3nc(N(C)C[C@@H]4CCCO4)ncc3Cl)C2)cc1` [Example 8.258], half-maximal inhibition (IC50) required 105 nM.

With `CC(=O)N[C@@H](C)c1ccc(O[C@@H]2CCN(c3nc(N(C)CC(C)C)ncc3Cl)C2)cc1` [Example 8.223], the IC50 amounted to 103 nM.

Regarding `CC(=O)N[C@@H](C)c1ccc(O[C@@H]2CCN(c3nc(N(C)C)ncc3Br)C2)cc1` [Example 8.58], the 50% inhibitory concentration (IC50) came out at 484 nM.

As for `CC(=O)N[C@@H](C)c1ccc(O[C@@H]2CCN(c3nc(N(C)CCC(C)(C)O)ncc3F)C2)cc1` [Example 8.32], the midpoint of inhibition, the IC50, lay at 1070 nM.

`CC(=O)N[C@@H](C)c1ccc(O[C@@H]2CCN(c3nc(N4[C@H](C)CCC[C@H]4C)ncc3Cl)C2)cc1` [Example 8.173] gave an IC50 of 155 nM.

Molecule `CC(=O)N[C@@H](C)c1ccc(O[C@@H]2CCN(c3ncnc(O[C@@H]4CCOC4)c3F)C2)cc1` [Example 7.38] displayed an IC50 of 196 nM.

`CC(=O)N[C@@H](C)c1ccc(O[C@@H]2CCN(c3ncnc(OC4CCOCC4)c3F)C2)cc1` [Example 7.37] gave an IC50 of 250 nM.

As to `CC(=O)N[C@@H](C)c1ccc(O[C@@H]2CCN(c3nc(N4CCC(C)(C)C4)ncc3Cl)C2)cc1` [Example 8.191], the IC50 is 222 nM.

The molecule `CCNc1ncnc(N2CC[C@@H](Oc3ccc([C@H](C)NC(C)=O)cc3)C2)c1F` [Example 8.118] yielded a half-maximal inhibitory concentration (IC50) of 2460 nM.

On to `CC(=O)N[C@@H](C)c1ccc(O[C@@H]2CCN(c3ncnc(OCC4CC4(F)F)c3Cl)C2)cc1` (stereo partly shown) [Example 7.40], for which the IC50 worked out at 42 nM.

The molecule `CC(=O)N[C@@H](C)c1ccc(O[C@@H]2CCN(c3ccnc(N4CCCC(F)(F)C4)n3)C2)cc1` [Example 8.208] came in with a half-inhibitory concentration (IC50) of 172 nM.

Regarding `CCN(CC)c1ncnc(N2CC[C@@H](Oc3ccc([C@H](C)NC(C)=O)cc3)C2)c1Cl` [Example 8.104], half-maximal inhibition (IC50) was put at 59 nM.

For `Cc1oncc1C(=O)N[C@@H](C)c1ccc(OC2CCN(c3ccnc(N(C)CC(F)F)n3)C2)cc1` (stereo partly shown) [Example 2.12], the midpoint of inhibition, the IC50, lay at 90 nM.

Molecule `CC(=O)N[C@@H](C)c1ccc(O[C@@H]2CCN(c3cc(OCC4CC4)ncn3)C2)cc1` [Example 7.3] returned an IC50 of 375 nM.

The molecule `CCN(c1nccc(N2CC[C@@H](Oc3ccc([C@H](C)NC(C)=O)cc3)C2)n1)C(C)C` [Example 8.260] returned an IC50 of 180 nM.

Consider `CCOc1ncnc(N2CC[C@@H](Oc3ccc([C@H](C)NC(C)=O)cc3)C2)c1C` [Example 7.24], for which half-maximal inhibition (IC50) required 394 nM.

The molecule `CC(=O)N[C@@H](C)c1ccc(O[C@@H]2CCN(c3nc(N(C)CC(C)O)ncc3Cl)C2)cc1` (stereo partly shown) [Example 8.185] yielded an IC50 of 753 nM.

`CCOc1ncnc(N2CC[C@@H](Oc3ccc([C@H](C)NC(C)=O)cc3)C2)c1OC` [Example 7.44] displayed an IC50 of 277 nM.

As to `CCCN(C)c1ncc(C)c(N2CC[C@@H](Oc3ccc([C@H](C)NC(C)=O)cc3)C2)n1` [Example 8.48], it took 312 nM to reach half-maximal inhibition (IC50).

`COc1c(OCC(C)(C)OC)ncnc1N1CC[C@@H](Oc2ccc([C@H](C)NC(C)=O)cc2)C1` [Example 7.61]: the half-inhibitory concentration (IC50) amounted to 233 nM.

With `CC(=O)N[C@@H](C)c1ccc(O[C@@H]2CCN(c3ncnc(N4CCOCC4)c3F)C2)cc1` [Example 8.143], the half-inhibitory concentration (IC50) amounted to 429 nM.

Turning to `COC(=O)N[C@@H](C)c1ccc(O[C@@H]2CCN(c3ccnc(N(C)CC(F)F)n3)C2)cc1` [Example 4.1, Methyl (S)-1-(4-((R)-1-(2-((2,2-difluoroethyl)(methyl)amino)pyrimidin-4-yl)pyrrolidin-3-yloxy)phenyl)ethylcarbamate], inhibition was half-maximal at 65 nM (IC50).

On to `CCN(CCO)c1ncc(Cl)c(N2CC[C@@H](Oc3ccc([C@H](C)NC(C)=O)cc3)C2)n1` [Example 8.178], for which the IC50 was determined as 389 nM.

Turning to `CCC(C)Nc1ncnc(N2CC[C@@H](Oc3ccc([C@H](C)NC(C)=O)cc3)C2)c1Cl` (stereo partly shown) [Example 8.314], the half-inhibitory concentration (IC50) came out at 345 nM.

Take `CO[C@H]1CCN(c2ncc(F)c(N3CC[C@@H](Oc4ccc([C@H](C)NC(C)=O)cc4)C3)n2)C1` [Example 8.259]: the concentration for half-maximal inhibition (IC50) is 173 nM.

Take `CC(=O)N[C@@H](C)c1ccc(O[C@@H]2CCN(c3nc(N4CC[C@@H](F)C4)ncc3F)C2)cc1` [Example 8.181]: the IC50 came to 531 nM.

`CC(=O)N[C@@H](C)c1ccc(O[C@@H]2CCN(c3ccnc(N4CCc5nocc5C4)n3)C2)cc1` [Example 8.246] showed an IC50 of 680 nM.

`CC(=O)N[C@@H](C)c1ccc(O[C@@H]2CCN(c3nc(N4C[C@@H]5CC[C@@H](C4)O5)ncc3Cl)C2)cc1` [Example 8.280]: 1230 nM corresponded to half-maximal inhibition (IC50).

As to `CC(=O)N[C@@H](C)c1ccc(O[C@@H]2CCN(c3ccnc(N(C)CC4CCOC4)n3)C2)cc1` (stereo partly shown) [Example 8.41], inhibition was half-maximal at 286 nM (IC50).

`C[C@H](NC(=O)N1CCOCC1)c1ccc(OC2CCN(c3ncnc(OCC4CC4)c3F)C2)cc1` (stereo partly shown) [Example 3.12]: the concentration for half-maximal inhibition (IC50) was 203 nM.
